Where two headings read alike, the source gives them in different places.
Key:
[1] = target: T1, Cathepsin B, purified from human liver (Homo sapiens, UniProt P07858); assay: In vitro evaluation of inhibitors with purified cathepsin B; assay type: biochemical
T1 construct: Cathepsin B, purified from human liver; purchased Enzyme Systems Products (Dublin, Calif.); host or cells: human liver (tissue-purified)
Method: Enzyme: Cathepsin B, purified from human liver, is from Enzyme Systems Products (Dublin, Calif.). The activity is 50 mU per ml at 30° C., in 52 mM sodium phosphate, pH 6.2, 31 mM DTT, 2.1 mM EDTA, with 0.2 mM Z—Arg—Arg-7-amino-4-trifluoromethyl-coumarin as a substrate. Specific activity is 8330 mU per mg protein. (1 mU=1 nmol per min.)
Substrate Boc—Leu—Arg—Arg-7-amino-4-trifluoromethyl-coumarin-2HBr is from Enzyme Systems Products (Dublin, Calif.) and is known to be a specific substrate for cathepsin B. A 20 mM solution is made in DMF and stored at […].
Candidate inhibitors are dissolved in DMF and diluted to 20 mM and stored at […]. Dilutions are made in assay buffer.
The percent inhibition and the inhibitor concentration at which the enzyme is 50% inhibited (IC50) are determined as follows. Five μl of assay buffer (50 mM potassium phosphate pH 6.2, 2 mM EDTA, 5 mM DTT) on ice for 30 min. The inhibition is initiated by the addition of […] inhibitor each to the 480 μl aliquots. The 485 μl aliquot with enzyme is used as a control and thus receives no inhibitor. The enzyme/inhibitor mixtures are incubated 10 min. on ice and assayed for cathepsin B activity as follows:
Cathepsin B assay: To 490 μl of pre-incubated inhibitor/enzyme mixtures in assay buffer in 0.5 ml cuvette at 37° is added 10 μl of the substrate. Final inhibitor concentrations become 2000 nM, 200 nM, and 20 nM for the 200 μM, 20 μM and 2 μM stock concentrations, respectively. Activity is followed by release of free AFC over 5 min. The change in fluorescence is (fluorescence units at t=6)−(fluorescence units at t=1) with a Perkin-Elmer LS-5B spectrofluorometer (ex=400 nm, em=505 nm). The percent inhibition is determined by comparing the change in fluorescence units of the three sample concentrations of inhibited enzyme to the change in fluorescence units of the control enzyme. The percent inhibition is calculated as:
100−(fl. units of sample/fl. units of control×100).
The IC50 is ascertained by plotting percent inhibition vs. inhibitor concentration on the log scale. The IC50 is the concentration of the inhibitor (nM) at which the enzyme is inhibited by 50%.

[2] = inhibitors with other heterocycles, read-out: IC5 Cathepsin B Inhibition
[3] = purified cathepsin B, read-out: IC50 Cat B

| IC50 [1, 2] [nM] | IC50 [1, 3] [nM] | melting point [°C] | SMILES |
| --- | --- | --- | --- |
| 229 |  |  | CCC1OC(=O)C(OCC(=O)C(CCc2ccccc2)NC(=O)C(Cc2ccccc2)NC(=O)N2CCOCC2)=C1C (centres unmarked) |
| 219 |  |  | Cc1ccc2cccc(OCC(=O)[C@H](CCc3ccccc3)NC(=O)[C@H](Cc3ccccc3)NC(=O)N3CCOCC3)c2n1 |
| 282 |  |  | Cc1cc(OCC(=O)[C@H](CCc2ccccc2)NC(=O)[C@H](Cc2ccccc2)NC(=O)N2CCOCC2)nc2ccccc12 |
| 1800 |  |  | O=C(COc1ncnc2ccccc12)[C@H](CCc1ccccc1)NC(=O)[C@H](Cc1ccccc1)NC(=O)N1CCOCC1 |
| 569 |  |  | O=C(COc1nc2ccccc2[nH]1)[C@H](CCc1ccccc1)NC(=O)[C@H](Cc1ccccc1)NC(=O)N1CCOCC1 |
| 457 |  |  | O=C(COc1nccc2ccccc12)[C@H](CCc1ccccc1)NC(=O)[C@H](Cc1ccccc1)NC(=O)N1CCOCC1 |
| 4500 |  |  | Cc1cc(=O)oc2cc(OCC(=O)[C@H](CCc3ccccc3)NC(=O)[C@H](Cc3ccccc3)NC(=O)N3CCOCC3)ccc12 |
| 4500 |  |  | O=C(COc1ccc2ccc(=O)oc2c1)[C@H](CCc1ccccc1)NC(=O)[C@H](Cc1ccccc1)NC(=O)N1CCOCC1 |
| 252 |  |  | O=C(COc1cc2ccccc2o1)[C@H](CCc1ccccc1)NC(=O)[C@H](Cc1ccccc1)NC(=O)N1CCOCC1 |
| 385 |  |  | Cc1occc(=O)c1OCC(=O)[C@H](CCc1ccccc1)NC(=O)[C@H](Cc1ccccc1)NC(=O)N1CCOCC1 |
| 21000 |  |  | O=C(COc1nc2ccccc2s1)[C@H](CCc1ccccc1)NC(=O)[C@H](Cc1ccccc1)NC(=O)N1CCOCC1 |
| 79000 |  |  | O=C(COc1cccs1)[C@H](CCc1ccccc1)NC(=O)[C@H](Cc1ccccc1)NC(=O)N1CCOCC1 |
| 2190 |  |  | CCOC(=O)c1c(C)noc1OCC(=O)[C@H](CCc1ccccc1)NC(=O)[C@H](Cc1ccccc1)NC(=O)N1CCOCC1 |
| 5600 |  |  | C[n+]1ccc2ccccc2c1OCC(=O)[C@H](CCc1ccccc1)NC(=O)[C@H](Cc1ccccc1)NC(=O)N1CCOCC1 |
|  | 94 |  | O=C1CC(=O)C(c2ccccc2)=C1OCC(=O)[C@H](CCc1ccccc1)NC(=O)[C@H](Cc1ccccc1)NC(=O)N1CCOCC1 [Compound 1, N-Morpholinecarbonyl-L-phenylalanyl-L-homophenylalanine-α-(4-oxy-5-phenyl-4-cyclopentene-1,3-dione) methyl ketone] |
|  | 141 |  | O=C1OC(C(O)CO)C(OCC(=O)C(CCc2ccccc2)NC(=O)C(Cc2ccccc2)NC(=O)N2CCOCC2)=C1O [Compound 2, N-Morpholinecarbonyl-L-phenylalanyl-L-homophenylalanyl-α-(4-ascorbityl) methyl ketone] |
|  | 567 | 74 to 78 | CC1CC(OCC(=O)C(CCc2ccccc2)NC(=O)C(Cc2ccccc2)NC(=O)N2CCOCC2)=CC(=O)O1 [Compound 4, N-Morpholinecarbonyl-L-phenylalanyl-L-homophenylalanyl-α-(4-oxy-5,6-dihydro-6-methyl-2H-pyran-2-one) methyl ketone] |
|  | 400 | 70 to 75 | Cc1cc(OCC(=O)[C@H](CCc2ccccc2)NC(=O)[C@H](CC(C)C)NC(=O)N2CCOCC2)cc(=O)o1 [Compound 5] |
|  | 25 | 151 to 155 | Cc1cc(OCC(=O)[C@H](CCCCN)NC(=O)[C@H](Cc2ccccc2)NC(=O)N2CCOCC2)cc(=O)o1 [Compound 7] |
|  | 83 | 140 to 142 | COc1ccc(C[C@H](NC(=O)N2CCOCC2)C(=O)N[C@@H](CCCCN)C(=O)COc2cc(C)oc(=O)c2)cc1 [Compound 8] |
|  | 8 | 140 to 142 | COc1ccc(C[C@H](NC(=O)N2CCOCC2)C(=O)N[C@@H](CCCCN)C(=O)COC2=C(c3ccccc3)C(=O)OC2)cc1 [Compound 10, N-Morpholinecarbonyl-L-tryosyl (O-methyl)-L-lysyl-(4-oxy-3-phenyl-dihydrofuran-2-one) methyl ketone] |

— patent US20020128434A1, “Alpha-(1,3-dicarbonylenol ether) methyl ketones as cysteine protease inhibitors” (priority 1993, published 2002)
